According to PubChem BioAssay (NCI):
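Compound exposure: 48 hours, 5 concentrations, 96-well plates. TGI denotes the concentration required for complete inhibition of growth.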

Columns and labels:
Assay in all cases: DTP human tumour cell line panel, 48 h
HT29 colon = system: HT29 colon
MDA-N = system: MDA-N
HCT-15 colon = system: HCT-15 colon
A549 NSCLC = system: A549 NSCLC
SK-OV-3 ovarian = system: SK-OV-3 ovarian
UACC-257 melanoma = system: UACC-257 melanoma
SNB-75 CNS = system: SNB-75 CNS
UACC-62 melanoma = system: UACC-62 melanoma
U251 CNS = system: U251 CNS
NCI-H226 lung = system: NCI-H226 lung
HCC-2998 colon = system: HCC-2998 colon
RPMI-8226 leukemia = system: RPMI-8226 leukemia
M14 melanoma = system: M14 melanoma
NCI/ADR-RES ovarian = system: NCI/ADR-RES ovarian
SK-MEL-5 melanoma = system: SK-MEL-5 melanoma
SW-620 colon = system: SW-620 colon
DU-145 prostate = system: DU-145 prostate
HL-60(TB) leukemia = system: HL-60(TB) leukemia
HOP-92 NSCLC = system: HOP-92 NSCLC
NCI-H522 lung = system: NCI-H522 lung
SK-MEL-2 melanoma = system: SK-MEL-2 melanoma
NCI-H23 lung = system: NCI-H23 lung
UO-31 renal = system: UO-31 renal
LOX IMVI melanoma = system: LOX IMVI melanoma
SNB-19 CNS = system: SNB-19 CNS
BT-549 breast = system: BT-549 breast
OVCAR-8 ovarian = system: OVCAR-8 ovarian
TK-10 renal = system: TK-10 renal
MALME-3M melanoma = system: MALME-3M melanoma
HS 578T breast = system: HS 578T breast
A498 renal = system: A498 renal
OVCAR-3 ovarian = system: OVCAR-3 ovarian
CAKI-1 renal = system: CAKI-1 renal
CCRF-CEM leukemia = system: CCRF-CEM leukemia
RXF 393 renal = system: RXF 393 renal
IGROV1 ovarian = system: IGROV1 ovarian
OVCAR-4 ovarian = system: OVCAR-4 ovarian
SF-295 CNS = system: SF-295 CNS
786-0 renal = system: 786-0 renal
SR leukemia = system: SR leukemia
MDA-MB-435 = system: MDA-MB-435
COLO 205 colon = system: COLO 205 colon
KM12 colon = system: KM12 colon
SN12C renal = system: SN12C renal
T-47D breast = system: T-47D breast
SK-MEL-28 melanoma = system: SK-MEL-28 melanoma
HCT-116 colon = system: HCT-116 colon
ACHN renal = system: ACHN renal
MDA-MB-231 breast = system: MDA-MB-231 breast
MCF7 breast = system: MCF7 breast
SF-539 CNS = system: SF-539 CNS
NCI-H460 lung = system: NCI-H460 lung
SF-268 CNS = system: SF-268 CNS
EKVX NSCLC = system: EKVX NSCLC
K-562 leukemia = system: K-562 leukemia
HOP-62 NSCLC = system: HOP-62 NSCLC
MOLT-4 leukemia = system: MOLT-4 leukemia
PC-3 prostate = system: PC-3 prostate
OVCAR-5 ovarian = system: OVCAR-5 ovarian

SMILES: C=C[C@@]1(C)CC2(C=C(CO)C(O)O2)Oc2c1c(=O)oc1cccc(C)c21 (some centres not stated)
- TGI (HT29 colon): 21.9 µM
- TGI (MDA-N): 15.2 µM
- TGI (HCT-15 colon): 7.17 µM
- TGI (A549 NSCLC): 68.7 µM
- TGI (SK-OV-3 ovarian): 47.3 µM
- TGI (UACC-257 melanoma): 35 µM
- TGI (SNB-75 CNS): 28.8 µM
- TGI (UACC-62 melanoma): 23.1 µM
- TGI (U251 CNS): 25.6 µM
- TGI (NCI-H226 lung): 35.5 µM
- TGI (HCC-2998 colon): 40.1 µM
- TGI (RPMI-8226 leukemia): 3.82 µM
- TGI (M14 melanoma): 12.1 µM
- TGI (NCI/ADR-RES ovarian): 10.2 µM
- TGI (SK-MEL-5 melanoma): 25.3 µM
- TGI (SW-620 colon): 3.74 µM
- TGI (DU-145 prostate): 29.1 µM
- TGI (HL-60(TB) leukemia): 5.12 µM
- TGI (HOP-92 NSCLC): 40.2 µM
- TGI (NCI-H522 lung): 4.82 µM
- TGI (SK-MEL-2 melanoma): 21.7 µM
- TGI (NCI-H23 lung): 21.3 µM
- TGI (UO-31 renal): 19 µM
- TGI (LOX IMVI melanoma): 13.7 µM
- TGI (SNB-19 CNS): 33.2 µM
- TGI (BT-549 breast): 14.2 µM
- TGI (OVCAR-8 ovarian): 9.72 µM
- TGI (TK-10 renal): 43.5 µM
- TGI (MALME-3M melanoma): 26.7 µM
- TGI (HS 578T breast): 42.9 µM
- TGI (A498 renal): 51.8 µM
- TGI (OVCAR-3 ovarian): 9.66 µM
- TGI (CAKI-1 renal): 15.6 µM
- TGI (CCRF-CEM leukemia): 7.98 µM
- TGI (RXF 393 renal): 8.86 µM
- TGI (IGROV1 ovarian): 18.4 µM
- TGI (OVCAR-4 ovarian): 12.8 µM
- TGI (SF-295 CNS): > 75.1 µM
- TGI (786-0 renal): 3.8 µM
- TGI (SR leukemia): 7.75 µM
- TGI (MDA-MB-435): 10.3 µM
- TGI (COLO 205 colon): 26.9 µM
- TGI (KM12 colon): 33.9 µM
- TGI (SN12C renal): 15.9 µM
- TGI (T-47D breast): 44.6 µM
- TGI (SK-MEL-28 melanoma): 25.5 µM
- TGI (HCT-116 colon): 3.65 µM
- TGI (ACHN renal): 21.2 µM
- TGI (MDA-MB-231 breast): 23.9 µM
- TGI (MCF7 breast): 25.1 µM
- TGI (SF-539 CNS): 12 µM
- TGI (NCI-H460 lung): 45.2 µM
- TGI (SF-268 CNS): 12.2 µM
- TGI (EKVX NSCLC): 35.2 µM
- TGI (K-562 leukemia): 7.46 µM
- TGI (HOP-62 NSCLC): 33.8 µM
- TGI (MOLT-4 leukemia): 5.78 µM
- TGI (PC-3 prostate): 32.7 µM
- TGI (OVCAR-5 ovarian): 36 µM

SMILES: C=C(C)C(=O)OC1C[C@H](COC(C)=O)C2CC=C(C)C2C2OC(=O)C(=C)[C@H]12 (some centres not stated)
- TGI (HT29 colon): 18 µM
- TGI (MDA-N): 10.3 µM
- TGI (HCT-15 colon): 5.17 µM
- TGI (A549 NSCLC): 34.2 µM
- TGI (SK-OV-3 ovarian): 31 µM
- TGI (UACC-257 melanoma): 13.2 µM
- TGI (SNB-75 CNS): 24.2 µM
- TGI (UACC-62 melanoma): 16.7 µM
- TGI (U251 CNS): 22.1 µM
- TGI (NCI-H226 lung): 31.8 µM
- TGI (HCC-2998 colon): 29.2 µM
- TGI (RPMI-8226 leukemia): 2.61 µM
- TGI (M14 melanoma): 4.23 µM
- TGI (NCI/ADR-RES ovarian): 6.23 µM
- TGI (SK-MEL-5 melanoma): 20.3 µM
- TGI (SW-620 colon): 6.53 µM
- TGI (DU-145 prostate): 16.5 µM
- TGI (HL-60(TB) leukemia): 2.83 µM
- TGI (HOP-92 NSCLC): 5.9 µM
- TGI (NCI-H522 lung): 3.06 µM
- TGI (SK-MEL-2 melanoma): 15.9 µM
- TGI (NCI-H23 lung): 14.2 µM
- TGI (UO-31 renal): 4.91 µM
- TGI (LOX IMVI melanoma): 4.86 µM
- TGI (SNB-19 CNS): 31.8 µM
- TGI (BT-549 breast): 14.4 µM
- TGI (OVCAR-8 ovarian): 13.3 µM
- TGI (TK-10 renal): 18.1 µM
- TGI (MALME-3M melanoma): 2.55 µM
- TGI (HS 578T breast): 14 µM
- TGI (A498 renal): 27.8 µM
- TGI (OVCAR-3 ovarian): 5.3 µM
- TGI (CAKI-1 renal): 7 µM
- TGI (CCRF-CEM leukemia): 5.03 µM
- TGI (RXF 393 renal): 14.1 µM
- TGI (IGROV1 ovarian): 25.5 µM
- TGI (OVCAR-4 ovarian): 5.57 µM
- TGI (SF-295 CNS): 33.8 µM
- TGI (786-0 renal): 7.26 µM
- TGI (SR leukemia): 5.07 µM
- TGI (MDA-MB-435): 10.9 µM
- TGI (COLO 205 colon): 6.17 µM
- TGI (KM12 colon): 24.2 µM
- TGI (SN12C renal): 13.1 µM
- TGI (T-47D breast): 20.8 µM
- TGI (SK-MEL-28 melanoma): 7.08 µM
- TGI (HCT-116 colon): 3.3 µM
- TGI (ACHN renal): 11.8 µM
- TGI (MDA-MB-231 breast): 13.5 µM
- TGI (MCF7 breast): 14.7 µM
- TGI (SF-539 CNS): 10.1 µM
- TGI (NCI-H460 lung): 34.4 µM
- TGI (SF-268 CNS): 7.21 µM
- TGI (EKVX NSCLC): 23.4 µM
- TGI (K-562 leukemia): 5.56 µM
- TGI (HOP-62 NSCLC): 27.7 µM
- TGI (MOLT-4 leukemia): 5.24 µM
- TGI (PC-3 prostate): 15.1 µM
- TGI (OVCAR-5 ovarian): 25.5 µM

SMILES: CO/C(N)=C(\C#N)N=Cc1ccccc1
- TGI (HT29 colon): > 100 µM
- TGI (MDA-N): > 100 µM
- TGI (HCT-15 colon): > 100 µM
- TGI (A549 NSCLC): > 100 µM
- TGI (SK-OV-3 ovarian): > 100 µM
- TGI (UACC-257 melanoma): > 100 µM
- TGI (SNB-75 CNS): > 100 µM
- TGI (UACC-62 melanoma): > 100 µM
- TGI (U251 CNS): > 100 µM
- TGI (NCI-H226 lung): > 100 µM
- TGI (HCC-2998 colon): > 100 µM
- TGI (RPMI-8226 leukemia): > 100 µM
- TGI (M14 melanoma): > 100 µM
- TGI (NCI/ADR-RES ovarian): > 100 µM
- TGI (SK-MEL-5 melanoma): > 100 µM
- TGI (SW-620 colon): > 100 µM
- TGI (DU-145 prostate): > 100 µM
- TGI (HL-60(TB) leukemia): > 100 µM
- TGI (HOP-92 NSCLC): > 100 µM
- TGI (NCI-H522 lung): > 100 µM
- TGI (SK-MEL-2 melanoma): > 100 µM
- TGI (NCI-H23 lung): > 100 µM
- TGI (UO-31 renal): > 100 µM
- TGI (LOX IMVI melanoma): > 100 µM
- TGI (SNB-19 CNS): > 100 µM
- TGI (BT-549 breast): > 100 µM
- TGI (OVCAR-8 ovarian): > 100 µM
- TGI (TK-10 renal): > 100 µM
- TGI (MALME-3M melanoma): > 100 µM
- TGI (HS 578T breast): > 100 µM
- TGI (A498 renal): > 100 µM
- TGI (OVCAR-3 ovarian): > 100 µM
- TGI (CAKI-1 renal): > 100 µM
- TGI (CCRF-CEM leukemia): > 100 µM
- TGI (RXF 393 renal): > 100 µM
- TGI (IGROV1 ovarian): > 100 µM
- TGI (OVCAR-4 ovarian): > 100 µM
- TGI (SF-295 CNS): > 100 µM
- TGI (786-0 renal): > 100 µM
- TGI (SR leukemia): > 100 µM
- TGI (MDA-MB-435): > 100 µM
- TGI (COLO 205 colon): > 100 µM
- TGI (KM12 colon): > 100 µM
- TGI (SN12C renal): > 100 µM
- TGI (T-47D breast): > 100 µM
- TGI (SK-MEL-28 melanoma): > 100 µM
- TGI (HCT-116 colon): > 100 µM
- TGI (ACHN renal): > 100 µM
- TGI (MDA-MB-231 breast): > 100 µM
- TGI (MCF7 breast): > 100 µM
- TGI (SF-539 CNS): > 100 µM
- TGI (NCI-H460 lung): > 100 µM
- TGI (SF-268 CNS): > 100 µM
- TGI (EKVX NSCLC): > 100 µM
- TGI (K-562 leukemia): > 100 µM
- TGI (HOP-62 NSCLC): > 100 µM
- TGI (MOLT-4 leukemia): > 100 µM
- TGI (PC-3 prostate): > 100 µM
- TGI (OVCAR-5 ovarian): > 100 µM
